PubChem BioAssay (NCI)
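GI50 is the concentration that inhibits growth by half. The concentration for full growth arrest is given as TGI.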

Legend:
Assay in all cases: DTP human tumour cell line panel, 384-well format
786-0 renal = system: 786-0 renal
A498 renal = system: A498 renal
A549 NSCLC = system: A549 NSCLC
BT-549 breast = system: BT-549 breast
CAKI-1 renal = system: CAKI-1 renal
CCRF-CEM leukemia = system: CCRF-CEM leukemia
COLO 205 colon = system: COLO 205 colon
DU-145 prostate = system: DU-145 prostate
EKVX NSCLC = system: EKVX NSCLC
HCC-2998 colon = system: HCC-2998 colon
HL-60(TB) leukemia = system: HL-60(TB) leukemia
HOP-62 NSCLC = system: HOP-62 NSCLC
HOP-92 NSCLC = system: HOP-92 NSCLC
HS 578T breast = system: HS 578T breast
HT29 colon = system: HT29 colon
IGROV1 ovarian = system: IGROV1 ovarian
KM12 colon = system: KM12 colon
LOX IMVI melanoma = system: LOX IMVI melanoma
M14 melanoma = system: M14 melanoma
MALME-3M melanoma = system: MALME-3M melanoma
MCF7 breast = system: MCF7 breast
MDA-MB-231 breast = system: MDA-MB-231 breast
MDA-MB-435 melanoma = system: MDA-MB-435 melanoma
MDA-MB-468 breast = system: MDA-MB-468 breast
MOLT-4 leukemia = system: MOLT-4 leukemia
NCI-H226 lung = system: NCI-H226 lung
NCI-H23 lung = system: NCI-H23 lung
NCI-H460 NSCLC = system: NCI-H460 NSCLC
NCI-H522 lung = system: NCI-H522 lung
NCI/ADR-RES ovarian = system: NCI/ADR-RES ovarian
OVCAR-4 ovarian = system: OVCAR-4 ovarian
OVCAR-5 ovarian = system: OVCAR-5 ovarian
OVCAR-8 ovarian = system: OVCAR-8 ovarian
PC-3 prostate = system: PC-3 prostate
RPMI-8226 leukemia = system: RPMI-8226 leukemia
RXF 393 renal = system: RXF 393 renal
SF-268 CNS = system: SF-268 CNS
SF-295 CNS = system: SF-295 CNS
SF-539 CNS = system: SF-539 CNS
SK-MEL-28 melanoma = system: SK-MEL-28 melanoma
SK-MEL-5 melanoma = system: SK-MEL-5 melanoma
SK-OV-3 ovarian = system: SK-OV-3 ovarian
SN12C renal = system: SN12C renal
SNB-19 CNS = system: SNB-19 CNS
SNB-75 CNS = system: SNB-75 CNS
SR leukemia = system: SR leukemia
SW-620 colon = system: SW-620 colon
T-47D breast = system: T-47D breast
TK-10 renal = system: TK-10 renal
UACC-257 melanoma = system: UACC-257 melanoma
UO-31 renal = system: UO-31 renal

Compound `N[C@@H]1CCCN(c2c(Br)cnc3[nH]cc(NC(=O)C4CC4)c23)C1` has a GI50 (786-0 renal) of 26.8 nM, a TGI (786-0 renal) of 78.9 nM and a GI50 (A498 renal) of 12 nM. The TGI (A498 renal) was 31.2 nM, the GI50 (A549 NSCLC) was 303 nM and the TGI (A549 NSCLC) was > 100000 nM. For the same compound, the GI50 (BT-549 breast) was 18.6 nM, the TGI (BT-549 breast) was 42.7 nM and the GI50 (CAKI-1 renal) was 361 nM. The TGI (CAKI-1 renal) was 14200 nM, the GI50 (CCRF-CEM leukemia) was 19 nM and the TGI (CCRF-CEM leukemia) was 37.5 nM. It also gave a GI50 (COLO 205 colon) of 269 nM, a TGI (COLO 205 colon) of 2690 nM and a GI50 (DU-145 prostate) of 172 nM. For the same compound, the TGI (DU-145 prostate) was > 100000 nM, the GI50 (EKVX NSCLC) was 184 nM and the TGI (EKVX NSCLC) was > 100000 nM. For the same compound, the GI50 (HCC-2998 colon) was 15.3 nM, the TGI (HCC-2998 colon) was 45.5 nM and the GI50 (HL-60(TB) leukemia) was 18 nM. It also gave a TGI (HL-60(TB) leukemia) of 35.4 nM, a GI50 (HOP-62 NSCLC) of 36.5 nM and a TGI (HOP-62 NSCLC) of 202 nM. The GI50 (HOP-92 NSCLC) was 19.2 nM, the TGI (HOP-92 NSCLC) was 57.7 nM and the GI50 (HS 578T breast) was 14.3 nM. The TGI (HS 578T breast) was 41 nM, the GI50 (HT29 colon) was 197 nM and the TGI (HT29 colon) was 524 nM. For the same compound, the GI50 (IGROV1 ovarian) was 61.1 nM, the TGI (IGROV1 ovarian) was > 100000 nM and the GI50 (KM12 colon) was 57.4 nM. For the same compound, the TGI (KM12 colon) was > 100000 nM, the GI50 (LOX IMVI melanoma) was 276 nM and the TGI (LOX IMVI melanoma) was 1870 nM. It also gave a GI50 (M14 melanoma) of 19.1 nM, a TGI (M14 melanoma) of 41.7 nM and a GI50 (MALME-3M melanoma) of 23.4 nM. The TGI (MALME-3M melanoma) was 219 nM, the GI50 (MCF7 breast) was 25.1 nM and the TGI (MCF7 breast) was > 100000 nM. It also gave a GI50 (MDA-MB-231 breast) of 318 nM, a TGI (MDA-MB-231 breast) of 18300 nM and a GI50 (MDA-MB-435 melanoma) of 30.5 nM. It also gave a TGI (MDA-MB-435 melanoma) of 124 nM, a GI50 (MDA-MB-468 breast) of 20 nM and a TGI (MDA-MB-468 breast) of 76 nM. It also gave a GI50 (MOLT-4 leukemia) of 14.1 nM, a TGI (MOLT-4 leukemia) of 27.8 nM and a GI50 (NCI-H226 lung) of 7470 nM. For the same compound, the TGI (NCI-H226 lung) was 56100 nM, the GI50 (NCI-H23 lung) was 21 nM and the TGI (NCI-H23 lung) was 69.5 nM. It also gave a GI50 (NCI-H460 NSCLC) of 118 nM, a TGI (NCI-H460 NSCLC) of 1500 nM and a GI50 (NCI-H522 lung) of 1510 nM. The TGI (NCI-H522 lung) was 9610 nM, the GI50 (NCI/ADR-RES ovarian) was 51.7 nM and the TGI (NCI/ADR-RES ovarian) was 197 nM. It also gave a GI50 (OVCAR-4 ovarian) of 17.7 nM, a TGI (OVCAR-4 ovarian) of 44.8 nM and a GI50 (OVCAR-5 ovarian) of 79.4 nM. The TGI (OVCAR-5 ovarian) was 433 nM, the GI50 (OVCAR-8 ovarian) was 28.7 nM and the TGI (OVCAR-8 ovarian) was 112 nM. The GI50 (PC-3 prostate) was 11800 nM, the TGI (PC-3 prostate) was 65600 nM and the GI50 (RPMI-8226 leukemia) was 18.7 nM. The TGI (RPMI-8226 leukemia) was 97.9 nM, the GI50 (RXF 393 renal) was 20.7 nM and the TGI (RXF 393 renal) was 45.5 nM. For the same compound, the GI50 (SF-268 CNS) was 241 nM, the TGI (SF-268 CNS) was > 100000 nM and the GI50 (SF-295 CNS) was 23.5 nM. The TGI (SF-295 CNS) was 68.8 nM, the GI50 (SF-539 CNS) was 17.4 nM and the TGI (SF-539 CNS) was 35.8 nM. For the same compound, the GI50 (SK-MEL-28 melanoma) was 244 nM, the TGI (SK-MEL-28 melanoma) was > 100000 nM and the GI50 (SK-MEL-5 melanoma) was 27.7 nM. For the same compound, the TGI (SK-MEL-5 melanoma) was 128 nM, the GI50 (SK-OV-3 ovarian) was 34.2 nM and the TGI (SK-OV-3 ovarian) was 162 nM. For the same compound, the GI50 (SN12C renal) was 450 nM, the TGI (SN12C renal) was 4270 nM and the GI50 (SNB-19 CNS) was 220 nM. For the same compound, the TGI (SNB-19 CNS) was > 100000 nM, the GI50 (SNB-75 CNS) was 262 nM and the TGI (SNB-75 CNS) was 4580 nM. For the same compound, the GI50 (SR leukemia) was 15.1 nM, the TGI (SR leukemia) was 29.4 nM and the GI50 (SW-620 colon) was 379 nM. For the same compound, the TGI (SW-620 colon) was 36400 nM, the GI50 (T-47D breast) was > 100000 nM and the TGI (T-47D breast) was > 100000 nM. It also gave a GI50 (TK-10 renal) of 24.2 nM, a TGI (TK-10 renal) of 64.7 nM and a GI50 (UACC-257 melanoma) of 368 nM. The TGI (UACC-257 melanoma) was > 100000 nM, the GI50 (UO-31 renal) was 52.7 nM and the TGI (UO-31 renal) was > 100000 nM.
